Assay results from patent US20250206732A1, “COMPOUNDS AND METHODS FOR THE TARGETED DEGRADATION OF KRAS” (Arvinas Operations, Inc., priority 2022, published 2025).

Molecular target: T1, AsPC-1 HiBiT-KRASG12D (Homo sapiens, UniProt P01116, G12D)
T1 construct: insert the HiBiT tag onto the N-terminus of one or more of the endogenous KRAS alleles; endogenous in cells; host or cells: AsPC-1 (ATCC CRL-1682), CRISPR-Cas9 knock-in clone, one tagged allele
Assay: HiBiT degradation assay (G12D), AsPC-1 HiBiT-KRASG12D cells
Type: cell-based
Conditions: 24 hours treatment; for Dmax: ASPC1, AsPC-1 HiBiT-KRASG12D cells, maximum degradation observed; for DC50: AsPC-1 HiBiT-KRASG12D cells, HiBiT luminescence
Text: Reagents. […] SW1573 cells are homozygous for the G12C mutation in KRAS, AsPC-1 cells are homozygous for the G12D mutation, and SW620 cells are homozygous for the G12V mutation. […] For degradation assays, 384 well plates were used. Alamar blue was purchased from ThermoFisher scientific (A50101) and used according to manufacturer instructions. The Nano-Glo® HiBiT Lytic Detection System and Nano-Glo® HiBiT Blotting System were purchased from Promega (#N3050 and #N2410) and used according to manufacturer instructions.
To create the AsPC-1 HiBiT-KRASG12D cell line, CRISPR-Cas9 was used to insert the HiBiT tag onto the N-terminus of one or more of the endogenous KRAS alleles. […] After knock-in of the tag, individual clones were isolated by single cell dilution and screened for HiBiT insertion by PCR. […] This clone was used in further studies.
HiBiT degradation assays (G12C and G12D). […] All assays were performed in triplicate. Cells were treated with compounds for 24 hours at 37° C. in an incubator containing 5% CO2. Following treatment, alamar blue was used to determine if any compounds led to a loss in cell viability after 24 hours. The 10× alamar blue reagent was added to a final concentration of 1× as recommended by the manufacturer and cells were returned to the incubator for 4 hours. Plates were then allowed to equilibrate to room temperature and fluorescence was measured using a Perkin-Elmer EnVision. After completion of the fluorescence read, the liquid from each well was removed and the cells were washed with PBS. The Nano-Glo® HiBiT detection reagent was prepared according to the manufacturer's instructions and added to each well after the PBS wash was removed. Following incubation at room temperature for 45 minutes, the luminescence was read using the ultra-sensitive luminescence aperture on the Envision instrument.
Data analysis. Fluorescence values from the alamar blue treatment were normalized to the DMSO-only control for each compound titration.

T1 sequence (P01116 1-188 isoform P01116-2 G12D): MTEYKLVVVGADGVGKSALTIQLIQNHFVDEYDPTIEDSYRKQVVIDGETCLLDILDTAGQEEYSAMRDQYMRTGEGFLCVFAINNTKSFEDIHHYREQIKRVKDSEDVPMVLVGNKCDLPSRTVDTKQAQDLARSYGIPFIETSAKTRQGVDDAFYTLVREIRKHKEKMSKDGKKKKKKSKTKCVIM

| SMILES | Dmax [%] | DC50 [nM] |
| --- | --- | --- |
| CCc1cccc2cc(O)cc(-c3ncc4c(N5CC6CCC(C5)N6)nc(OC[C@@]56CCCN5[C@H](CN5CCC(COc7cc([C@@H](C(=O)N8C[C@H](O)C[C@H]8C(=O)N[C@@H](C)c8ccc(-c9scnc9C)cc8)C(C)C)on7)CC5)CC6)nc4c3F)c12 [Compound 97, (2S,4R)-1-[(2S)-2-{3-[(1-{[(3S,7aS)-7a-{[(4-{3,8-diazabicyclo[3.2.1]octan-3-yl}-7-(8-ethyl-3-hydroxynaphthalen-1-yl)-8-fluoropyrido[4,3-d]pyrimidin-2-yl)oxy]methyl}-hexahydro-1H-pyrrolizin-3-yl]methyl}piperidin-4-yl)methoxy]-1,2-oxazol-5-yl}-3-methylbutanoyl]-4-hydroxy-N-[(1S)-1-[4-(4-methyl-1,3-thiazol-5-yl)phenyl]ethyl]pyrrolidine-2-carboxamide] | 20 to 60 | 600 to 1000 |
| CCc1cccc2cc(O)cc(-c3ncc4c(N5CC6CCC(C5)N6)nc(OC[C@]56CCCN5[C@H](COC(=O)N5C[C@@H](C)N(c7cc([C@@H](C(=O)N8C[C@H](O)C[C@H]8C(=O)N[C@@H](C)c8ccc(-c9scnc9C)cc8)C(C)C)on7)C[C@@H]5C)CC6)nc4c3F)c12 [Compound 297, [(3S,8R)-8-[[4-(3,8-diazabicyclo[3.2.1]octan-3-yl)-7-(8-ethyl-3-hydroxy-1-naphthyl)-8-fluoro-pyrido[4,3-d]pyrimidin-2-yl]oxymethyl]-1,2,3,5,6,7-hexahydropyrrolizin-3-yl]methyl (2S,5R)-4-[5-[(1S)-1-[(2S,4R)-4-hydroxy-2-[[(1S)-1-[4-(4-methylthiazol-5-yl)phenyl]ethyl]carbamoyl]pyrrolidine-1-carbonyl]-2-methyl-propyl]isoxazol-3-yl]-2,5-dimethyl-piperazine-1-carboxylate] | < 20 | < 600 |
| CCc1cccc2cc(O)cc(-c3ncc4c(N5CCCCCC5)nc(OC[C@@H]5CC[C@@H](COC(=O)N6CC(Oc7cc([C@H](C(=O)N8C[C@H](O)C[C@H]8C(=O)N[C@@H](C)c8ccc(-c9scnc9C)cc8)C(C)C)on7)C6)N5C)nc4c3F)c12 [Compound 241] | 60 to 80 | < 600 |
| CCc1cccc2cc(O)cc(-c3ncc4c(N5CC6CCC(C5)N6)nc(OCCN5CCC(CCOc6cc([C@H](C(=O)N7C[C@H](O)C[C@H]7C(=O)N[C@@H](C)c7ccc(-c8scnc8C)cc7)C(C)C)on6)CC5)nc4c3F)c12 [Compound 249] | 80 to 100 | < 600 |
| CCc1cccc2cc(O)cc(-c3ncc4c(N5CC6CCC(C5)N6)nc(OCCN5CCC(CC6CCN(c7cc([C@@H](C(=O)N8C[C@H](O)C[C@H]8C(=O)N[C@@H](C)c8ccc(-c9ccnn9C)cc8)C(C)C)on7)CC6)CC5)nc4c3F)c12 [Compound 210, (2S,4R)-1-[(2S)-2-(3-{4-[(1-{2-[(4-{3,8-diazabicyclo[3.2.1]octan-3-yl}-7-(8-ethyl-3-hydroxynaphthalen-1-yl)-8-fluoropyrido[4,3-d]pyrimidin-2-yl)oxy]ethyl}piperidin-4-yl)methyl]piperidin-1-yl}-1,2-oxazol-5-yl)-3-methylbutanoyl]-4-hydroxy-N-[(1S)-1-[4-(1-methyl-1H-pyrazol-5-yl)phenyl]ethyl]pyrrolidine-2-carboxamide] | 20 to 60 | 600 to 1000 |
| CCc1cccc2cc(O)cc(-c3ncc4c(N5CC6CCC(C5)N6)nc(OCCN5CCC(F)(CN6CCN(c7cc([C@@H](C(=O)N8C[C@H](O)C[C@H]8C(=O)N[C@@H](C)c8ccc(-c9scnc9C)cc8)C(C)C)on7)[C@H](C)C6)CC5)nc4c3F)c12 [Compound 224, (2S,4R)-1-[(2S)-2-{3-[(2R)-4-[(1-{2-[(4-{3,8-diazabicyclo[3.2.1]octan-3-yl}-7-(8-ethyl-3-hydroxynaphthalen-1-yl)-8-fluoropyrido[4,3-d]pyrimidin-2-yl)oxy]ethyl}-4-fluoropiperidin-4-yl)methyl]-2-methylpiperazin-1-yl]-1,2-oxazol-5-yl}-3-methylbutanoyl]-4-hydroxy-N-[(1S)-1-[4-(4-methyl-1,3-thiazol-5-yl)phenyl]ethyl]pyrrolidine-2-carboxamide] | 20 to 60 | 600 to 1000 |
| CCc1cccc2cc(O)cc(-c3ncc4c(N5CCCCCC5)nc(OC[C@@H]5CC[C@@H](COC(=O)N6CCN(c7cc([C@H](C(=O)N8C[C@H](O)C[C@H]8C(=O)N[C@@H](C)c8ccc(-c9scnc9C)cc8)C(C)C)on7)[C@H](C)C6)N5C)nc4c3F)c12 [Compound 230, [(2S,5S)-5-[[4-(azepan-1-yl)-7-(8-ethyl-3-hydroxy-1-naphthyl)-8-fluoro-pyrido[4,3-d]pyrimidin-2-yl]oxymethyl]-1-methyl-pyrrolidin-2-yl]methyl (3R)-4-[5-[(1R)-1-[(2S,4R)-4-hydroxy-2-[[(1S)-1-[4-(4-methylthiazol-5-yl)phenyl]ethyl]carbamoyl]pyrrolidine-1-carbonyl]-2-methyl-propyl]isoxazol-3-yl]-3-methyl-piperazine-1-carboxylate] | 60 to 80 | < 600 |
| CCc1cccc2cc(O)cc(-c3ncc4c(N5CC6CCC(C5)N6)nc(OCCN5CCC[C@H](CN6CCN(c7cc([C@H](C(=O)N8C[C@H](O)C[C@H]8C(=O)N[C@@H](C)c8ccc(-c9scnc9C)cc8)C(C)C)on7)CC6)C5)nc4c3F)c12 [Compound 243, (2S,4R)-1-[(2R)-2-[3-[4-[(3R)-1-[2-[[4-(3,8-diazabicyclo[3.2.1]octan-3-yl)-7-(8-ethyl-3-hydroxy-1-naphthyl)-8-fluoro-pyrido[4,3-d]pyrimidin-2-yl]oxyethyl]-3-piperidyl]methyl]piperazin-1-yl]isoxazol-5-yl]-3-methyl-butanoyl]-4-hydroxy-N-[(1S)-1-[4-(4-methylthiazol-5-yl)phenyl]ethyl]pyrrolidine-2-carboxamide] | 80 to 100 | < 600 |
| CCc1cccc2cc(O)cc(-c3ncc4c(N5CC6CCC(C5)N6)nc(OC[C@@H]5CC[C@@H](COC(=O)N6CC(Oc7cc([C@H](C(=O)N8C[C@H](O)C[C@H]8C(=O)N[C@@H](C)c8ccc(-c9scnc9C)cc8)C(C)C)on7)C6)N5C)nc4c3F)c12 [Compound 294] | 80 to 100 | < 600 |
| CCc1cccc2cc(O)cc(-c3ncc4c(N5CC6CCC(C5)N6)nc(OCCN5C[C@@H]6CN(c7cc([C@H](C(=O)N8C[C@H](O)C[C@H]8C(=O)N[C@@H](C)c8ccc(-c9scnc9C)cc8)C(C)C)on7)C[C@H]6C5)nc4c3F)c12 (relative stereo) [Compound 77, (2S,4R)-1-[(2R*)-2-{3-[(3aR,6aR)-5-{2-[(4-{3,8-diazabicyclo[3.2.1]octan-3-yl}-7-(8-ethyl-3-hydroxynaphthalen-1-yl)-8-fluoropyrido[4,3-d]pyrimidin-2-yl)oxy]ethyl}-octahydropyrrolo[3,4-c]pyrrol-2-yl]-1,2-oxazol-5-yl}-3-methylbutanoyl]-4-hydroxy-N-[(1S)-1-[4-(4-methyl-1,3-thiazol-5-yl)phenyl]ethyl]pyrrolidine-2-carboxamide] | 80 to 100 | < 600 |
| Cc1ncsc1-c1ccc([C@H](C)NC(=O)[C@@H]2C[C@@H](O)CN2C(=O)[C@@H](c2cc(N3CCN(C(=O)OC[C@@H]4CC[C@@]5(COc6nc(N7CC8CCC(C7)N8)c7cnc(-c8cc(O)cc(Cl)c8C(F)(F)F)c(F)c7n6)CCCN45)CC3)no2)C(C)C)cc1 (relative stereo) [Compound 257, [(3S,8R)-8-[[7-[3-chloro-5-hydroxy-2-(trifluoromethyl)phenyl]-4-(3,8-diazabicyclo[3.2.1]octan-3-yl)-8-fluoro-pyrido[4,3-d]pyrimidin-2-yl]oxymethyl]-1,2,3,5,6,7-hexahydropyrrolizin-3-yl]methyl 4-[5-[(1R)-1-[(2S,4R)-4-hydroxy-2-[[(1S)-1-[4-(4-methylthiazol-5-yl)phenyl]ethyl]carbamoyl]pyrrolidine-1-carbonyl]-2-methyl-propyl]isoxazol-3-yl]piperazine-1-carboxylate] | 80 to 100 | < 600 |
| CCc1cccc2cc(O)cc(-c3ncc4c(N5CC6CCC(C5)N6)nc(OCCN5CCC(F)(CN6CCN(c7cc([C@@H](C(=O)N8C[C@H](O)C[C@H]8C(=O)N[C@@H](C)c8ccc(-c9scnc9C)cc8)C(C)C)on7)[C@@H](C)C6)CC5)nc4c3F)c12 [Compound 203, (2S,4R)-1-[(2S)-2-{3-[(2S)-4-[(1-{2-[(4-{3,8-diazabicyclo[3.2.1]octan-3-yl}-7-(8-ethyl-3-hydroxynaphthalen-1-yl)-8-fluoropyrido[4,3-d]pyrimidin-2-yl)oxy]ethyl}-4-fluoropiperidin-4-yl)methyl]-2-methylpiperazin-1-yl]-1,2-oxazol-5-yl}-3-methylbutanoyl]-4-hydroxy-N-[(1S)-1-[4-(4-methyl-1,3-thiazol-5-yl)phenyl]ethyl]pyrrolidine-2-carboxamide] | 20 to 60 | 1000 to 3000 |
